Measurements published in PubChem BioAssay AID2060338 (Molecular Pharmacology Branch, DTP, NCI, 2025).

Test system: 556581-035-R-J1-PDC spheroids with HUVEC/MSC, viability
Experiment: Anticancer human tumor 556581-035-R-J1-PDC patient-derived ovarian carcinoma cell line growth inhibition [IpAb]
Conditions: for IC50: curve of first compound; for viability, T/C: stronger effect = lower value
In short: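 Multi-cell spheroids of 60% tumour cells, 25% HUVEC and 15% MSC in ultra-low-attachment U-bottom wells, treated with agents combined with ipatasertib or abemaciclib. Half-log ranges top out near clinical Cmax, or 10 microM when Cmax is unknown.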

[1] = second compound 0.1 µM, first compound 0.000316 µM
[2] = second compound 0.1 µM, first compound 0.001 µM
[3] = second compound 0.1 µM, first compound 0.00316 µM
[4] = second compound 0.1 µM, first compound 0.01 µM
[5] = second compound 0.1 µM, first compound 0.0316 µM
[6] = second compound 0.1 µM, first compound 0.1 µM
[7] = second compound 0.316 µM, first compound 0.000316 µM
[8] = second compound 0.316 µM, first compound 0.001 µM
[9] = second compound 0.316 µM, first compound 0.00316 µM
[10] = second compound 0.316 µM, first compound 0.01 µM
[11] = second compound 0.316 µM, first compound 0.0316 µM
[12] = second compound 0.316 µM, first compound 0.1 µM
[13] = second compound 1 µM, first compound 0.000316 µM
[14] = second compound 1 µM, first compound 0.001 µM
[15] = second compound 1 µM, first compound 0.00316 µM
[16] = second compound 1 µM, first compound 0.01 µM
[17] = second compound 1 µM, first compound 0.0316 µM
[18] = second compound 1 µM, first compound 0.1 µM
[19] = second compound 3.16 µM, first compound 0.0316 µM
[20] = second compound 3.16 µM, first compound 0.1 µM
[21] = second compound 10 µM, first compound 0.0316 µM
[22] = second compound 10 µM, first compound 0.1 µM
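Also: spheroids exposed to compounds for 7 days before readout.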

CC(C)n1nc(-c2ccc3oc(N)nc3c2)c2c(N)ncnc21 + CCN1CCN(Cc2ccc(Nc3ncc(F)c(-c4cc(F)c5nc(C)n(C(C)C)c5c4)n3)nc2)CC1
IC50 (second compound 0.01 µM): 4.4 nM
IC50 (second compound 0.0316 µM): 7.08 nM
IC50 (second compound 0.1 µM): 5.03 nM
IC50 (second compound 0.316 µM): 6.49 nM
IC50 (second compound 1 µM): < 0.316 nM
viability, T/C (second compound 0.01 µM, first compound 0.000316 µM): 108%
viability, T/C (second compound 0.01 µM, first compound 0.001 µM): 72.6%
viability, T/C (second compound 0.01 µM, first compound 0.00316 µM): 54.4%
viability, T/C (second compound 0.01 µM, first compound 0.01 µM): 44.2%
viability, T/C (second compound 0.01 µM, first compound 0.0316 µM): 26.4%
viability, T/C (second compound 0.01 µM, first compound 0.1 µM): 22.2%
viability, T/C (second compound 0.0316 µM, first compound 0.000316 µM): 86.4%
viability, T/C (second compound 0.0316 µM, first compound 0.001 µM): 78.7%
viability, T/C (second compound 0.0316 µM, first compound 0.00316 µM): 60.7%
viability, T/C (second compound 0.0316 µM, first compound 0.01 µM): 46.8%
viability, T/C (second compound 0.0316 µM, first compound 0.0316 µM): 27.5%
viability, T/C (second compound 0.0316 µM, first compound 0.1 µM): 19.7%
viability, T/C [1]: 89.6%
viability, T/C [2]: 76.1%
viability, T/C [3]: 51.7%
viability, T/C [4]: 45%
viability, T/C [5]: 26.4%
viability, T/C [6]: 20.2%
viability, T/C [7]: 80.1%
viability, T/C [8]: 69.8%
viability, T/C [9]: 61.5%
viability, T/C [10]: 44.2%
viability, T/C [11]: 28.7%
viability, T/C [12]: 21.6%
viability, T/C [13]: 41.9%
viability, T/C [14]: 52.7%
viability, T/C [15]: 38.4%
viability, T/C [16]: 31.9%
viability, T/C [17]: 28.4%
viability, T/C [18]: 23.1%

CCCS(=O)(=O)Nc1ccc(F)c(C(=O)c2c[nH]c3ncc(-c4ccc(Cl)cc4)cc23)c1F + CC(C)NCC(C(=O)N1CCN(c2ncnc3c2C(C)CC3O)CC1)c1ccc(Cl)cc1
IC50 (second compound 0.1 µM): > 10000 nM
IC50 (second compound 0.316 µM): > 10000 nM
IC50 (second compound 1 µM): > 10000 nM
IC50 (second compound 3.16 µM): 4620 nM
IC50 (second compound 10 µM): 31.6 nM
viability, T/C [5]: 80.4%
viability, T/C [6]: 83%
viability, T/C (second compound 0.1 µM, first compound 0.316 µM): 97.2%
viability, T/C (second compound 0.1 µM, first compound 1 µM): 88.6%
viability, T/C (second compound 0.1 µM, first compound 3.16 µM): 90%
viability, T/C (second compound 0.1 µM, first compound 10 µM): 54.3%
viability, T/C [11]: 90%
viability, T/C [12]: 73.9%
viability, T/C (second compound 0.316 µM, first compound 0.316 µM): 71.8%
viability, T/C (second compound 0.316 µM, first compound 1 µM): 80.8%
viability, T/C (second compound 0.316 µM, first compound 3.16 µM): 78.2%
viability, T/C (second compound 0.316 µM, first compound 10 µM): 59.9%
viability, T/C [17]: 67.1%
viability, T/C [18]: 69%
viability, T/C (second compound 1 µM, first compound 0.316 µM): 61.5%
viability, T/C (second compound 1 µM, first compound 1 µM): 71.3%
viability, T/C (second compound 1 µM, first compound 3.16 µM): 69.1%
viability, T/C (second compound 1 µM, first compound 10 µM): 40.4%
viability, T/C [19]: 49.2%
viability, T/C [20]: 61.8%
viability, T/C (second compound 3.16 µM, first compound 0.316 µM): 55.5%
viability, T/C (second compound 3.16 µM, first compound 1 µM): 55.8%
viability, T/C (second compound 3.16 µM, first compound 3.16 µM): 54.5%
viability, T/C (second compound 3.16 µM, first compound 10 µM): 40.8%
viability, T/C [21]: 45.1%
viability, T/C [22]: 46.7%
viability, T/C (second compound 10 µM, first compound 0.316 µM): 47.2%
viability, T/C (second compound 10 µM, first compound 1 µM): 53.2%
viability, T/C (second compound 10 µM, first compound 3.16 µM): 50.8%
viability, T/C (second compound 10 µM, first compound 10 µM): 16.6%

CC(C)n1nc(-c2ccc3oc(N)nc3c2)c2c(N)ncnc21 + CC(C)NCC(C(=O)N1CCN(c2ncnc3c2C(C)CC3O)CC1)c1ccc(Cl)cc1
IC50 (second compound 0.1 µM): 6.46 nM
IC50 (second compound 0.316 µM): 6 nM
IC50 (second compound 1 µM): 3.58 nM
IC50 (second compound 3.16 µM): 1.47 nM
IC50 (second compound 10 µM): < 0.316 nM
viability, T/C [1]: 87.8%
viability, T/C [2]: 68.8%
viability, T/C [3]: 60.1%
viability, T/C [4]: 47.6%
viability, T/C [5]: 29.3%
viability, T/C [6]: 24.7%
viability, T/C [7]: 69.5%
viability, T/C [8]: 65.1%
viability, T/C [9]: 58%
viability, T/C [10]: 40.9%
viability, T/C [11]: 36.6%
viability, T/C [12]: 21.3%
viability, T/C [13]: 58.6%
viability, T/C [14]: 67.1%
viability, T/C [15]: 50.4%
viability, T/C [16]: 34%
viability, T/C [17]: 28.6%
viability, T/C [18]: 25.2%
viability, T/C (second compound 3.16 µM, first compound 0.000316 µM): 63.4%
viability, T/C (second compound 3.16 µM, first compound 0.001 µM): 52.4%
viability, T/C (second compound 3.16 µM, first compound 0.00316 µM): 44.1%
viability, T/C (second compound 3.16 µM, first compound 0.01 µM): 34.1%
viability, T/C [19]: 27.5%
viability, T/C [20]: 18.5%
viability, T/C (second compound 10 µM, first compound 0.000316 µM): 48%
viability, T/C (second compound 10 µM, first compound 0.001 µM): 44%
viability, T/C (second compound 10 µM, first compound 0.00316 µM): 36.8%
viability, T/C (second compound 10 µM, first compound 0.01 µM): 25.7%
viability, T/C [21]: 17.1%
viability, T/C [22]: 16.4%
